Results reported in ChEMBL document CHEMBL4428092, “Synthesis and activity evaluation of the cyclic dipeptides arylidene N-alkoxydiketopiperazines” (Bioorg Med Chem, 2016).
pIC50: −log10 of the molar value.

Tests used:
[1] = test system: HepG2; assay: Growth inhibition of human HepG2 cells at 20 ug/ml relative to control; type: functional; settings: read-out: GI
[2] = test system: HCT-15; assay: Growth inhibition of human HCT15 cells at 20 ug/ml relative to control; type: functional; settings: read-out: GI
[3] = test system: MDA-MB-231; assay: Growth inhibition of human MDA-MB-231 cells at 20 ug/ml relative to control; type: functional; settings: read-out: GI
[4] = Growth inhibition of human K562-1 cells at 20 ug/ml relative to control; type: functional; settings: read-out: GI
[5] = Growth inhibition of human Bre04 cells at 20 ug/ml after 24 hrs by sulforhodamine B assay relative to control; type: functional; settings: Bre04, 24 h, read-out: GI
[6] = test system: HCT-8; assay: Growth inhibition of human HCT8 cells at 20 ug/ml relative to control; type: functional; settings: read-out: GI
[7] = test system: A549; assay: Growth inhibition of human A549 cells at 20 ug/ml relative to control; type: functional; settings: read-out: GI
[8] = test system: HT-29; assay: Growth inhibition of human HT-29 cells at 20 ug/ml relative to control; type: functional; settings: read-out: GI
[9] = Antiproliferative activity against human K562-1 cells after 24 hrs by sulforhodamine B assay relative to control; type: functional, cell-based
[10] = test system: A549; assay: Cytotoxicity against human A549 cells at 20 uM after 24 hrs by sulforhodamine B assay relative to control; type: functional
[11] = test system: HT-29; assay: Cytotoxicity against human HT-29 cells at 10 uM after 24 hrs by sulforhodamine B assay relative to control; type: functional
[12] = Growth inhibition of human K562-1 cells at 20 ug/ml after 24 hrs by sulforhodamine B assay relative to control; type: functional; settings: read-out: GI
[13] = test system: HCT-15; assay: Cytotoxicity against human HCT15 cells at 5 uM after 24 hrs by sulforhodamine B assay relative to control; type: functional
[14] = Cytotoxicity against human K562-1 cells at 20 uM after 24 hrs by sulforhodamine B assay relative to control; type: functional
[15] = test system: HCT-15; assay: Cytotoxicity against human HCT15 cells at 20 uM after 24 hrs by sulforhodamine B assay relative to control; type: functional
[16] = test system: HCT-15; assay: Cytotoxicity against human HCT15 cells at 50 uM after 24 hrs by sulforhodamine B assay relative to control; type: functional
[17] = test system: HT-29; assay: Cytotoxicity against human HT-29 cells at 50 uM after 24 hrs by sulforhodamine B assay relative to control; type: functional
[18] = test system: A549; assay: Cytotoxicity against human A549 cells at 50 uM after 24 hrs by sulforhodamine B assay relative to control; type: functional
[19] = test system: HCT-15; assay: Cytotoxicity against human HCT15 cells at 100 uM after 24 hrs by sulforhodamine B assay relative to control; type: functional
[20] = Cytotoxicity against human K562-1 cells at 5 uM after 24 hrs by sulforhodamine B assay relative to control; type: functional
[21] = test system: HCT-15; assay: Antiproliferative activity against human HCT15 cells after 24 hrs by sulforhodamine B assay relative to control; type: functional, cell-based; settings: HCT-15, 24 h
[22] = Cytotoxicity against human K562-1 cells at 100 uM after 24 hrs by sulforhodamine B assay relative to control; type: functional
[23] = test system: HCT-15; assay: Cytotoxicity against human HCT15 cells at 10 uM after 24 hrs by sulforhodamine B assay relative to control; type: functional
[24] = Cytotoxicity against human K562-1 cells at 10 uM after 24 hrs by sulforhodamine B assay relative to control; type: functional
[25] = Cytotoxicity against human K562-1 cells at 50 uM after 24 hrs by sulforhodamine B assay relative to control; type: functional
[26] = test system: HT-29; assay: Cytotoxicity against human HT-29 cells at 20 uM after 24 hrs by sulforhodamine B assay relative to control; type: functional
[27] = test system: HT-29; assay: Cytotoxicity against human HT-29 cells at 100 uM after 24 hrs by sulforhodamine B assay relative to control; type: functional
[28] = test system: HT-29; assay: Growth inhibition of human HT-29 cells at 20 ug/ml after 24 hrs by sulforhodamine B assay relative to control; type: functional; settings: HT-29, 24 h, read-out: GI
[29] = test system: A549; assay: Growth inhibition of human A549 cells at 20 ug/ml after 24 hrs by sulforhodamine B assay relative to control; type: functional; settings: A549, 24 h, read-out: GI
[30] = test system: A549; assay: Cytotoxicity against human A549 cells at 100 uM after 24 hrs by sulforhodamine B assay relative to control; type: functional
[31] = test system: A549; assay: Antiproliferative activity against human A549 cells after 24 hrs by sulforhodamine B assay relative to control; type: functional, cell-based; settings: A549, 24 h
[32] = test system: A549; assay: Cytotoxicity against human A549 cells at 5 uM after 24 hrs by sulforhodamine B assay relative to control; type: functional
[33] = test system: A549; assay: Cytotoxicity against human A549 cells at 10 uM after 24 hrs by sulforhodamine B assay relative to control; type: functional
[34] = test system: HCT-15; assay: Growth inhibition of human HCT15 cells at 20 ug/ml after 24 hrs by sulforhodamine B assay relative to control; type: functional; settings: HCT-15, 24 h, read-out: GI

| Compound | inhibition of growth at 20 µg/mL [1] [%] | inhibition of growth at 20 µg/mL [2] [%] | inhibition of growth at 20 µg/mL [3] [%] | inhibition of growth at 20 µg/mL [4] [%] | inhibition of growth at 20 µg/mL [5] [%] | inhibition of growth at 20 µg/mL [6] [%] | inhibition of growth at 20 µg/mL [7] [%] | inhibition of growth at 20 µg/mL [8] [%] | pIC50 [9] | Activity [11] [%] | Activity [13] [%] | Activity [14] [%] | Activity [15] [%] | Activity [16] [%] | Activity [17] [%] | Activity [18] [%] | Activity [19] [%] | Activity [20] [%] | pIC50 [21] | Activity [22] [%] | further results |
| --- | --- | --- | --- | --- | --- | --- | --- | --- | --- | --- | --- | --- | --- | --- | --- | --- | --- | --- | --- | --- | --- |
| O=C1[C@@H]2CCCN2C(=O)/C(=C\c2ccccc2)N1OCc1ccccc1 | 69.2 | 69.7 | 32.6 | 65.6 | 25 | 66.8 | 41.3 | 76.2 | – | – | – | – | – | – | – | – | – | – | – | – | – |
| COc1cc(/C=C2\C(=O)N3CCC[C@H]3C(=O)N2OCc2ccccc2)cc(OC)c1OC | 75 | 74.2 | 43.2 | 73.2 | – | 79.1 | 8.9 | 70.1 | – | – | – | – | – | – | – | – | – | – | – | – | – |
| COc1cc(/C=C2\C(=O)N3CCC[C@H]3C(=O)N2OC2CCCCC2)cc(OC)c1OC | 76.1 | 67.9 | 42.5 | – | – | 75.2 | 26.4 | 60.5 | 5.01 | 48.8 | 40.4 | 61.3 | 47.6 | 69.3 | 56.6 | 33.4 | 89.7 | 30.2 | 4.63 | 96.4 | Activity [10]: 20.5%; inhibition of growth at 20 µg/mL [12]: 80.1%; Activity [23]: 39.2%; Activity [24]: 50.7%; Activity [25]: 83.6%; Activity [26]: 42.9%; Activity [27]: 88.5% |
| CCON1C(=O)[C@@H]2CCCN2C(=O)/C1=C\c1ccccc1 | – | – | – | – | 21.9 | – | – | – | – | – | – | – | – | – | – | – | – | – | – | – | inhibition of growth at 20 µg/mL [12]: 42.6%; inhibition of growth at 20 µg/mL [28]: 62.8%; inhibition of growth at 20 µg/mL [29]: 25.3% |
| O=C1[C@@H]2CCCN2C(=O)/C(=C\c2cccnc2)N1OC1CCCCC1 | 60.4 | 62.1 | 16.1 | 69.3 | 35.3 | 80.1 | 35.2 | 70.3 | – | – | – | – | – | – | – | – | – | – | – | – | – |
| O=C1[C@@H]2CCCN2C(=O)/C(=C\c2ccccc2)N1OC1CCCCC1 | 68.5 | 72.3 | 17.3 | 78.2 | – | 76.3 | 33.8 | 69.4 | – | – | – | – | – | – | – | – | – | – | – | – | – |
| CCCCON1C(=O)[C@@H]2CCCN2C(=O)/C1=C\c1ccccc1 | 59.9 | 90.6 | 16.3 | 96.2 | – | 68.4 | 50.8 | 64.9 | 4.56 | 21.2 | 4.04 | 46.5 | 78.3 | 87.5 | 61.6 | 48.4 | 99.1 | 30.2 | 4.93 | 99.6 | Activity [10]: 16.2%; Activity [30]: 91.1%; Activity [23]: 48.8%; Activity [24]: 39.2%; Activity [25]: 92.7%; Activity [26]: 39.8%; Activity [27]: 80.6% |
| CON1C(=O)[C@@H]2CCCN2C(=O)/C1=C\c1ccccc1 | 62.2 | 88.8 | 23.5 | 90.4 | 24.5 | 78.8 | 26.6 | 65.4 | 4.75 | 28.1 | 37.3 | 55.4 | 60.5 | 82.6 | 56.4 | 22.4 | 96.5 | 24.4 | 4.85 | 98.6 | Activity [30]: 50.5%; Activity [23]: 46.8%; Activity [24]: 36.2%; Activity [25]: 87.3%; Activity [26]: 34.9%; Activity [27]: 88.6% |
| COc1cc(/C=C2\C(=O)N3CCC[C@H]3C(=O)N2OCc2ccc(Cl)cc2)cc(OC)c1OC | – | – | – | – | 50.3 | – | – | – | 5.14 | 24.2 | 42.4 | 73.9 | 81.6 | 94.4 | 55.7 | 81.8 | 98.6 | 36.7 | 5.07 | 97.8 | Activity [10]: 63.4%; pIC50 [31]: 4.94; inhibition of growth at 20 µg/mL [12]: 95.7%; Activity [30]: 91.7%; Activity [32]: 4.03%; inhibition of growth at 20 µg/mL [28]: 53.2%; Activity [33]: 48.1%; Activity [23]: 60.5%; Activity [24]: 58.1%; inhibition of growth at 20 µg/mL [29]: 76.6%; Activity [25]: 96.5%; Activity [26]: 39.2%; inhibition of growth at 20 µg/mL [34]: 92.6%; Activity [27]: 86.8% |
| COc1cc(/C=C2\C(=O)N3CCC[C@H]3C(=O)N2OCc2cccnc2)cc(OC)c1OC | – | – | – | – | – | – | – | – | – | – | – | – | – | – | – | – | – | – | – | – | inhibition of growth at 20 µg/mL [28]: 30.7%; inhibition of growth at 20 µg/mL [29]: 27.1%; inhibition of growth at 20 µg/mL [34]: 78.7% |
| CCCCON1C(=O)[C@@H]2CCCN2C(=O)/C1=C\c1cc(OC)c(OC)c(OC)c1 | 64.3 | 61.6 | 45.6 | 64.4 | – | 60.6 | 43.4 | 61.6 | – | – | – | – | – | – | – | – | – | – | – | – | – |
